According to patent US20230278972A1, “SUBSTITUTED HALOALKYL SULFONANILIDE HERBICIDES” (FMC Corporation, priority 2020, published 2023):

Assays:
Type in all cases: in vivo
[1] = system: Foxtail, Giant (giant foxtail, Setaria faberi); test: Test A1 preemergence, Foxtail, Giant
How it was run: (§1)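 Pre: seeds in loam/sand blend, directed soil spray. Post: potted plants, same soil, 2–10 cm, 1–2 leaf stage. Chemicals in non-phytotoxic solvent + surfactant for both.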

corn (Zea mays) = test: Test A1 postemergence, corn; conditions: for Corn plant response rating: postemergence; for Plant response rating, Corn: Postemergence
How it was run: as §1

[2] = system: Ryegrass, Italian (Italian ryegrass, Lolium multiflorum); test: Test A1 postemergence, Ryegrass, Italian; conditions: for Ryegrass, Italian plant response rating: postemergence; for Plant response rating, Ryegrass, Italian: Postemergence
How it was run: (§2)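 Both timings started from seed in a loam-sand blend. Preemergence pots got a directed soil application immediately; postemergence pots were sprayed when seedlings had one or two leaves and stood 2–10 cm. Each compound was prepared in a non-phytotoxic solvent plus surfactant.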

kochia (Bassia scoparia) = test: Test A1 preemergence, kochia
How it was run: as §1

[3] = system: Foxtail, Giant (giant foxtail, Setaria faberi); test: Test A1 postemergence, Foxtail, Giant; conditions: for Foxtail, Giant plant response rating: postemergence; for Plant response rating, Foxtail, Giant: Postemergence
How it was run: as §2

[4] = 31 g ai/ha, 0 to 100 scale (0 no effect, 100 complete control)
[5] = 125 g ai/ha, 0 to 100 scale, 0 no effect, 100 complete control
[6] = 125 g ai/ha, 0 to 100 scale (0 no effect, 100 complete control), 10 days
[7] = 31 g ai/ha, 0 to 100 scale (0 no effect, 100 complete control), 10 days
[8] = 125 g ai/ha, 0 to 100 scale (0 no effect, 100 complete control)

SMILES | Plant response rating, Foxtail, Giant [1, 4] | Plant response rating, Foxtail, Giant [1, 5] | Corn plant response rating (corn (Zea mays); [4]) | Plant response rating, Corn (corn (Zea mays); [6]) | Ryegrass, Italian plant response rating [2, 4] | Plant response rating, Ryegrass, Italian [2, 6] | Plant response rating, Kochia (kochia (Bassia scoparia); [4]) | Plant response rating, Kochia (kochia (Bassia scoparia); [5]) | Foxtail, Giant plant response rating [3, 4] | Plant response rating, Foxtail, Giant [3, 6] | Plant response rating, Corn (corn (Zea mays); [7]) | Plant response rating, Corn (corn (Zea mays); 125 g ai/ha, 0 to 100 scale) | Plant response rating, Ryegrass, Italian ([2]; 125 g ai/ha, 0 to 100 scale) | Plant response rating, Foxtail, Giant ([3]; 125 g ai/ha, 0 to 100 scale) | Plant response rating, Foxtail, Giant [1, 8] | Plant response rating, Kochia (kochia (Bassia scoparia); [8]) | Plant response rating, Ryegrass, Italian [2, 7] | Plant response rating, Foxtail, Giant [3, 7]
Cc1cc(C)c(N2CCC3(CCC(C)CC3)C2=O)cc1NS(=O)(=O)C(F)(F)F (stereo not drawn) [Compound 402] | 90 | 100 | 0 | 0 | 0 | 0 | 0 | 30 | 0 | 20 | – | – | – | – | – | – | – | –
CCOC(=O)N(c1cc(C(=O)N2C[C@@H](C)O[C@H](C)C2)c(C)c(C)c1C)S(=O)(=O)C(F)(F)F (relative stereo) [Compound 374] | 50 | 100 | – | – | 0 | – | 0 | 0 | 0 | – | 60 | 70 | 50 | 80 | – | – | – | –
Cc1cc(C)c(N2CC3(CCCCC3)CC2=O)cc1NS(=O)(=O)C(F)(F)F [Compound 392] | 0 | 100 | 0 | 0 | 0 | 0 | 20 | 20 | 0 | 0 | – | – | – | – | – | – | – | –
CCc1cc(C)c(N(COC(=O)C(C)(C)C)S(=O)(=O)C(F)(F)F)cc1C1=NOC2CCCC12 (stereo not drawn) [Compound 378] | 0 | 20 | – | – | 0 | – | 0 | 20 | 0 | – | 0 | 30 | 0 | 10 | – | – | – | –
Cc1cc(Cl)c(NS(=O)(=O)C(F)(F)F)cc1N1CC2(CCCCC2)OC1=O [Compound 394] | 90 | 100 | 0 | 40 | 20 | 40 | 30 | 60 | 0 | 50 | – | – | – | – | – | – | – | –
Cc1cc(C)c(C2=NOC(C(C)C)C2)cc1NS(=O)(=O)C(F)(F)F (stereo not drawn) [Compound 381] | 20 | 100 | 0 | 20 | 0 | 0 | 0 | 60 | 0 | 50 | – | – | – | – | – | – | – | –
Cc1cc(C)c(N2Cc3cccc(C)c3C2=O)cc1NS(=O)(=O)Cl [Compound 408] | 100 | – | 80 | 80 | 70 | 80 | 0 | – | 90 | 90 | – | – | – | – | 100 | 70 | – | –
Cc1cc(C)c(C2=NOC3OCCCC23)cc1NS(=O)(=O)C(F)(F)F (stereo not drawn) [Compound 372] | 90 | 100 | – | – | 0 | – | 0 | 70 | 0 | – | 20 | 50 | 50 | 40 | – | – | – | –
CCOc1cccc2c1C(=O)N(c1cc(N(COC(=O)C(C)(C)C)S(=O)(=O)Cl)c(C)cc1C)C2 [Compound 414] | 0 | – | 0 | 0 | 0 | 0 | 20 | – | 0 | 0 | – | – | – | – | 0 | 80 | – | –
Cc1cc(C)c(N(COC(=O)C(C)(C)C)S(=O)(=O)C(F)(F)F)cc1N1CCC2(CCC(C(F)(F)F)CC2)C1=O (stereo not drawn) [Compound 403] | 0 | 10 | 0 | 0 | 0 | 0 | 0 | 0 | 0 | 0 | – | – | – | – | – | – | – | –
Cc1cc(Cl)c(NS(=O)(=O)C(F)(F)F)cc1N1CCC2(CCCCC2)C1=O [Compound 393] | 70 | 100 | 0 | 30 | 30 | 50 | 60 | 80 | 0 | 40 | – | – | – | – | – | – | – | –
Cc1c(NS(=O)(=O)C(F)(F)F)cc(C2=NOC3(CCCC3)C2)c(C)c1C [Compound 380] | 80 | 100 | 0 | 50 | 0 | 60 | 0 | 60 | 10 | 80 | – | – | – | – | – | – | – | –
Cc1c(C2=NOC3(CCCC3)C2)cc(N(COC(=O)C(C)(C)C)S(=O)(=O)C(F)(F)F)c(C)c1C [Compound 382] | 0 | 30 | 0 | 0 | 0 | 0 | 0 | 0 | 0 | 50 | – | – | – | – | – | – | – | –
COC1CCC2(CC1)CCN(c1cc(NS(=O)(=O)C(F)(F)F)c(C)cc1C)C2=O (stereo not drawn) [Compound 398] | 90 | 100 | 30 | 60 | 50 | 90 | 40 | 50 | 20 | 60 | – | – | – | – | – | – | – | –
CCOC(=O)N(c1cc(C2=NOC3CCCC23)c(CC)cc1C)S(=O)(=O)C(F)(F)F (stereo not drawn) [Compound 379] | 0 | 70 | – | – | 0 | – | 0 | 10 | 0 | – | 0 | 0 | 0 | 10 | – | – | – | –
Cc1cc(C)c(N(S(=O)(=O)C(F)(F)F)S(=O)(=O)C(F)(F)F)cc1N1CCC2(CCC(C(F)(F)F)CC2)C1=O (stereo not drawn) [Compound 399] | 10 | 90 | 0 | 10 | 0 | 70 | 0 | 50 | 10 | 60 | – | – | – | – | – | – | – | –
Cc1ccc(C2=NOC3CCCC23)cc1NS(=O)(=O)C(F)(F)F (stereo not drawn) [Compound 377] | 0 | 0 | – | – | 0 | – | 0 | 20 | 0 | – | 0 | 0 | 0 | 0 | – | – | – | –
CCOC(=O)N(c1cc(C(=O)N2CCSCC2)c(C)c(C)c1C)S(=O)(=O)C(F)(F)F [Compound 286] | 80 | 100 | – | – | – | – | 0 | 80 | – | – | 0 | 0 | 0 | 80 | – | – | 0 | 80
Cc1c(C(=O)N2C[C@@H](C)O[C@H](C)C2)cc(N(COC(=O)C(C)(C)C)S(=O)(=O)C(F)(F)F)c(C)c1C (relative stereo) [Compound 373] | 0 | 90 | – | – | 0 | – | 0 | 0 | 0 | – | 0 | 40 | 30 | 60 | – | – | – | –
Cc1cc(C)c(N2Cc3cccc(Br)c3C2=O)cc1NS(=O)(=O)Cl [Compound 415] | 80 | – | 0 | 50 | 0 | 60 | 10 | – | 0 | 30 | – | – | – | – | 90 | 60 | – | –
COc1cccc2c1C(=O)N(c1cc(N(COC(=O)C(C)(C)C)S(=O)(=O)Cl)c(C)cc1C)C2 [Compound 413] | 0 | – | 30 | 30 | 0 | 0 | 70 | – | 0 | 10 | – | – | – | – | 10 | 90 | – | –
